The experiment has as its target hTREM2 (Homo sapiens, UniProt Q9NZC2). In words: TREM2 agonist potency by Syk phosphorylation (AlphaLisa) in HEK293T-hTREM2 cells, used for Examples 306-429. The format is cell-based. Set-up: expressed in transfected cells; host or cells: HEK293T (HEK293T-hTREM2 cells). As to conditions: HEK293 Cells. Summed up:
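HEK293T cells expressing human TREM2 and DAP12, plated 20-24 h before, were exposed to compounds for 45 min at room temperature, then lysed. Phospho-Syk read by AlphaLisa; % activation from a standard curve and EC50 from a four-parameter log(agonist) fit.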

Chain of hTREM2 (Q9NZC2 19-230): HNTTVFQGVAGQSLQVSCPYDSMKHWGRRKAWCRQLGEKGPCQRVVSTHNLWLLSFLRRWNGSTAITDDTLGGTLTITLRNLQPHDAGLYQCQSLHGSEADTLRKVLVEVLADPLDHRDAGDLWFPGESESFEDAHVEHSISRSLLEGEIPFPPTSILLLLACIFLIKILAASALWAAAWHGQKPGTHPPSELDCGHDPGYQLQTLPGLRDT
Chain of hTREM2 (O43914 22-113 partner): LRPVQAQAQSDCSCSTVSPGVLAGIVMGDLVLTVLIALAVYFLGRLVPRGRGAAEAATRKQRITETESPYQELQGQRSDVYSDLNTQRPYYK

Turning to `Cc1cnc2c(-c3ccc(Cl)cc3F)nc([C@@H]3CCO[C@@H](c4cnn(C5CC5)c4)C3)nc2n1` [Example 350, 4-(4-chloro-2-fluorophenyl)-2-((2R,4R)-2-(1-cyclopropyl-1H-pyrazol-4-yl)tetrahydro-2H-pyran-4-yl)-7-methylpteridine], the EC50 lay within 500 to 3000 nM.

Take `Cc1cc([C@H]2C[C@@H](c3nc(-c4ccc(C(F)(F)F)nc4)c4nc(C)c(C)nc4n3)CCO2)ccn1` (racemic) [Example 309, 6,7-dimethyl-2-(2-(2-methylpyridin-4-yl)tetrahydro-2H-pyran-4-yl)-4-(6-(trifluoromethyl)pyridin-3-yl)pteridine]: the EC50 lay within 50 to 500 nM.

As for `Cc1nc2cc(N3CCO[C@H](c4cnn(C5CC5)c4)C3)nc(-c3ccc(Cl)cc3F)c2nc1C` [Example 383, (2R)-4-[5-(4-chloro-2-fluoro-phenyl)-2,3-dimethyl-pyrido[3,4-b]pyrazin-7-yl]-2-(1-cyclopropylpyrazol-4-yl)morpholine], the EC50 was in the range of 50 to 500 nM.

Turning to `Cc1cc([C@H]2C[C@H](c3cc4nc(C)c(C)nc4c(-c4ccc(F)cc4F)n3)CCO2)ccn1` [Example 331, 5-(2,4-difluorophenyl)-2,3-dimethyl-7-((2R,4R)-2-(2-methylpyridin-4-yl)tetrahydro-2H-pyran-4-yl)pyrido[3,4-b]pyrazine], the EC50 was in the range of 500 to 3000 nM.

Compound `Cc1nc2cc([C@H]3CCO[C@@H](c4cnn(C5CC5)c4)C3)nc(-c3ccc(F)cc3F)c2nc1C` (racemic) [Example 393, 7-[2-(1-cyclopropylpyrazol-4-yl)tetrahydropyran-4-yl]-5-(2,4-difluorophenyl)-2,3-dimethyl-pyrido[3,4-b]pyrazine] gave an EC50 of 50 to 500 nM.

For the compound `Cc1nc2cc([C@H]3C[C@@H](C)O[C@@H](c4cnn(C5CC5)c4)C3)nc(-c3ccc(F)cc3F)c2nc1C` [Example 380, 7-[(2R,4S,6R)-2-(1-cyclopropylpyrazol-4-yl)-6-methyl-tetrahydropyran-4-yl]-5-(2,4-difluorophenyl)-2,3-dimethyl-pyrido[3,4-b]pyrazine], the EC50 was not above 50 nM.

On to `Cc1nc2nc(N3C[C@@H](c4cnn(C5CC5)c4)O[C@@H](C)C3)nc(C34CC(C(F)(F)F)(C3)C4)c2nc1C` [Example 410, (2R,6S)-2-(1-cyclopropyl-1H-pyrazol-4-yl)-4-(6,7-dimethyl-4-(3-(trifluoromethyl)bicyclo[1.1.1]pentan-1-yl)pteridin-2-yl)-6-methylmorpholine], for which the EC50 is not above 50 nM.

For `Cc1cc(C2CN(c3cc4nc(C)c(C)nc4c(-c4ccc(F)cc4F)n3)CCO2)ccn1` (centres unmarked) [Example 315, 4-(5-(2,4-difluorophenyl)-2,3-dimethylpyrido[3,4-b]pyrazin-7-yl)-2-(2-methylpyridin-4-yl)morpholine], the EC50 is not above 50 nM.

For `Cc1cnc2c(-c3ccc(Cl)cc3F)nc(N3C[C@@H](C)O[C@@H](c4cnn(C5CC5)c4)C3)cc2n1` (racemic) [Example 368, 4-(5-(4-chloro-2-fluorophenyl)-2-methylpyrido[3,4-b]pyrazin-7-yl)-2-(1-cyclopropyl-1H-pyrazol-4-yl)-6-methylmorpholine], the EC50 lay within 50 to 500 nM.

`Cc1cnc2c(-c3ccc(F)cc3F)nc([C@H]3CCO[C@H](c4cnn(C5CC5)c4)C3)nc2n1` [Example 339, 2-((2S,4S)-2-(1-cyclopropyl-1H-pyrazol-4-yl)tetrahydro-2H-pyran-4-yl)-4-(2,4-difluorophenyl)-7-methylpteridine] displayed an EC50 of 50 to 500 nM.

As to `Cc1cnc2c(C34CC(C(F)(F)F)(C3)C4)nc([C@H]3CCO[C@@H](c4cnn(C5CC5)c4)C3)cc2n1` (racemic) [Example 386, 2-methyl-7-[2-(1-cyclopropylpyrazol-4-yl)tetrahydropyran-4-yl]-5-[3-(trifluoromethyl)-1-bicyclo[1.1.1]pentanyl]pyrido[3,4-b]pyrazine], the EC50 is not above 50 nM.

These data come from patent US11884675B2, “Heterocyclic compounds as triggering receptor expressed on myeloid cells 2 agonists and methods of use” (AMGEN INC., priority 2020, dated 2024).
